Measurements published in ChEMBL document CHEMBL2417478, “Farnesides A and B, sesquiterpenoid nucleoside ethers from a marine-derived Streptomyces sp., strain CNT-372 from Fiji” (J Nat Prod, 2013).
Calls of active or inactive are those of the source. The rule behind the calls is not given here.

How the values were obtained:
[1] = tested on: Influenza A virus; test: Antiviral activity against influenza A virus by plaque inhibition assay; format: functional, organism-based
[2] = tested on: Staphylococcus aureus; test: Antibacterial activity against methicillin-resistant Staphylococcus aureus; format: functional, organism-based
[3] = tested on: HCT-116; test: Cytotoxicity against human HCT116 cells; format: functional, cell-based
[4] = tested on: Plasmodium falciparum; test: Antimalarial activity against Plasmodium falciparum 3D7 MRA-102, MR4/ATCC infected in human erythrocytes assessed as inhibition of parasite proliferation after 72 hrs by SYBR green assay; format: functional, organism-based

`CC(C)=CCC/C(C)=C/COC[C@H]1O[C@@H](N2CCC(=O)NC2=O)[C@H](O)[C@@H]1O` was tested, and the Activity [1] was “Active”.

With `CC(C)=CCC[C@@]1(C)O[C@@H]1CC/C(C)=C/COC[C@H]1O[C@@H](N2CCC(=O)NC2=O)[C@H](O)[C@@H]1O` the Activity [2] was “inactive”, the Activity [3] was “inactive” and the IC50 [4] was 69.3 µM. For the same molecule, the Activity [1] was “inactive”.

In the case of `CC(C)=CCC[C@@](C)(O)[C@@H](O)CC/C(C)=C/COC[C@H]1O[C@@H](N2CCC(=O)NC2=O)[C@H](O)[C@@H]1O`, the Activity [2] is reported as “inactive”, the Activity [3] is reported as “inactive” and the Activity [1] is reported as “inactive”.
